Values quoted from earlier work as cited in patent publication US5214030A, “Calcitonin gene-related peptides for treating erectile dysfunctions” (priority 1989, dated 1993).

Tested on: Cynomolgus monkey
Conditions: 1-2 intracavernosal injections per week over 12 months

COc1ccc(Cc2nccc3cc(OC)c(OC)cc23)cc1OC [papaverine]
findings in the erectile tissue: extensive fibrous formation in further parts of the erectile tissue
